Results on 8 molecules are retold here after patent US6569839B1, “Fast-acting pharmaceutical compositions and methods of use” (priority 1998, dated 2003).

The subject of data set [1] is gram negative organisms and many gram positive organisms which include staphylococcus aureus and staphylococcus epidermidis. To be noted: cited from earlier work.
The conditions of data set [2]: in vivo.
Data set [3] can be described thus: Absorption of antibiotic from the treated wound. In kind it is in vivo. To be noted: administered to the wound over 24 hour period. The procedure:
In an embodiment of the present invention, a medicinal solution comprising Chloramphenicol can be prepared such that the patient receives only about 1-½ gm in a 24 hour period. Thus, if 100% was absorbed during the 24 hour period while treating a wound as, for example, following a total knee arthroplasty, the administered 1 ½ gm over a 24 hour is a safe dose, in fact, for three days. Since, however, only approximately 40% of the antibiotic is typically absorbed, the amount that is available to the bone marrow is, thus, very small. For patients with blood dyscrasias a dose of about 2 gm of Cephalosporin or a dose of about 1 gm Septaz can be used in place of a dose of about 1 g of Chloramphenicol for the 24 hour period.

Data set [4] has as its system common bone and joint infections. To be noted: cited from earlier work.
For data set [5] the following is noted: 1 gm interoperatively; total hip or knee joint replacements; 95% without steroid; cited from earlier work.
For data set [6] the following is noted: 1000 units of Heparin with 1 gm of Cefazolin; cited from earlier work.
For data set [7] the following is noted: 0.5%, continuous perineural infusion around the major nerve; cited from earlier work.
The conditions of data set [8]: 50 to 100 mg I.V. over a 40 to 120 second period; cited from earlier work.
For data set [9] the following is noted: I.V. every 90 minutes; cited from earlier work.

Turning to `CC(C)(O/N=C(\C(=O)N[C@@H]1C(=O)N2C(C(=O)[O-])=C(C[n+]3ccccc3)CS[C@H]12)c1csc(N)n1)C(=O)O` [Ceftazidime], in data set [1], the Bacterial coverage entry was “very good”.

Regarding `CCCCN1CCCCC1C(=O)Nc1c(C)cccc1C` (centres unmarked) [Marcaine], in data set [2], the “complications if dosage is not strictly monitored” value is listed as “critical complications can occur”.

Regarding `O=C(N[C@H](CO)[C@H](O)c1ccc([N+](=O)[O-])cc1)C(Cl)Cl` [Chloramphenicol], the “fraction of the antibiotic typically absorbed” value in data set [3] was “approximately 40%”. Moreover, the “effectiveness as broad-spectrum antibiotic” value in data set [4] (against the common bone and joint infections) was “very effective”. In addition, in data set [4] (in vivo), the reported blood toxicity result is “aplastic anemia and other blood problems”.

Regarding `C[C@]12CCC(=O)C=C1CC[C@@H]1[C@@H]2[C@@H](O)C[C@@]2(C)[C@H]1CC[C@]2(O)C(=O)COC(=O)CCC(=O)O` [Solu-Cortef, Hydrocortisone sodium succinate], the “patients who experienced pain with interoperative steroid administration” value in data set [5] was 33%.

For `C[C@H]1C[C@@H]2[C@H]([C@@H](O)C[C@@]3(C)[C@H]2CC[C@]3(O)C(=O)COC(=O)CCC(=O)O)[C@@]2(C)C=CC(=O)C=C12` [Solumedrol], in data set [5], the “patients who experienced pain with interoperative steroid administration” value is given as 33%.

For the molecule `Cc1nnc(SCC2=C(C(=O)O)N3C(=O)[C@@H](NC(=O)Cn4cnnn4)[C@H]3SC2)s1` [Cefazolin], in [6], the time compatible was 24 h.

`CCCCN1CCCCC1C(=O)Nc1c(C)cccc1C` (centres unmarked) [Bupicocaine]: the relief of pain entry in [7] is given as “good relief of pain”.

Take `CCN(CC)CC(=O)Nc1c(C)cccc1C` [Lidocaine]: in data set [8], the ill effects entry is “without ill effects”. For the same molecule, in data set [9], the maximum suggested dose entry is recorded as “about 300 mg”.
